Measurements published in the supplement of paper PMC10307832.

Columns and labels:
Experiment in all cases: relative viability (nuclei count vs DMSO), 5 days (fraction); higher = more cells survive
[1] = compound: CS(=O)(=O)c1ccc(-c2cnc(N)c(C(=O)Nc3ccccc3)n2)cc1 [VE-821] + CC(=O)c1c(C)c2cnc(Nc3ccc(N4CCNCC4)cn3)nc2n(C2CCCC2)c1=O [Palbociclib] (partner 0.5 µM)
How it was run: (§1)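 One day after seeding in 1536-well plates, lung cancer cell lines were dosed by pin tool. Dosing was either single-drug or a fixed anchor-drug dose plus five library-drug doses (not always all listed) in √10 steps. After 5 days, nuclei were stained in one fix-and-stain step and counted on 4× images, and relative viability is the nuclei count of treated wells over that of vehicle wells, given as the median of duplicate plates.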

[2] = compound: CS(=O)(=O)c1ccc(C(=O)Nc2ccc(Cl)c(-c3ccccn3)c2)c(Cl)c1 [Vismodegib] + N=C(N)NC(=N)NCCc1ccccc1 [Phenformin] (partner 250 µM)
How it was run: as §1

[3] = compound: N#CC[C@H](C1CCCC1)n1cc(-c2ncnc3[nH]ccc23)cn1 [Ruxolitinib] + N=C(N)NC(=N)NCCc1ccccc1 [Phenformin] (partner 250 µM)
How it was run: as §1

[4] = compound: CS(=O)(=O)c1ccc(C(=O)Nc2ccc(Cl)c(-c3ccccn3)c2)c(Cl)c1 [Vismodegib] + O=C(c1cc(Cc2n[nH]c(=O)c3ccccc23)ccc1F)N1CCN(C(=O)C2CC2)CC1 [Olaparib] (partner 8 µM)
How it was run: as §1

Cell Line | relative viability ([1]; first compound 0.08 µM) | relative viability ([1]; first compound 0.253 µM) | relative viability ([1]; first compound 0.8 µM) | relative viability ([1]; first compound 2.53 µM) | relative viability ([1]; first compound 8 µM) | relative viability ([2]; first compound 0.08 µM) | relative viability ([2]; first compound 0.253 µM) | relative viability ([2]; first compound 0.8 µM) | relative viability ([2]; first compound 2.53 µM) | relative viability ([2]; first compound 8 µM) | relative viability ([3]; first compound 0.08 µM) | relative viability ([3]; first compound 0.253 µM) | relative viability ([3]; first compound 0.8 µM) | relative viability ([3]; first compound 2.53 µM) | relative viability ([3]; first compound 8 µM) | relative viability ([4]; first compound 0.08 µM) | relative viability ([4]; first compound 0.253 µM) | relative viability ([4]; first compound 0.8 µM) | relative viability ([4]; first compound 2.53 µM) | relative viability ([4]; first compound 8 µM)
H3255 | 0.288 | 0.332 | 0.332 | 0.326 | 0.319 | 0.362 | 0.378 | 0.362 | 0.324 | 0.413 | 0.232 | 0.339 | 0.289 | 0.295 | 0.405 | 0.586 | 0.554 | 0.516 | 0.54 | 0.517
NCI-H1651 | 0.523 | 0.547 | 0.502 | 0.565 | 0.519 | 0.353 | 0.336 | 0.365 | 0.343 | 0.327 | 0.313 | 0.275 | 0.351 | 0.3 | 0.354 | 0.176 | 0.192 | 0.188 | 0.182 | 0.204
NCI-H1734 | 0.462 | 0.363 | 0.325 | 0.337 | 0.532 | 0.384 | 0.316 | 0.396 | 0.322 | 0.384 | 0.382 | 0.342 | 0.472 | 0.36 | 0.432 | 0.574 | 0.515 | 0.605 | 0.59 | 0.672
CAL-12T | 0.571 | 0.373 | 0.472 | 0.51 | 0.308 | 0.641 | 0.584 | 0.578 | 0.561 | 0.578 | 0.437 | 0.674 | 0.596 | 0.444 | 0.408 | 0.81 | 0.691 | 0.411 | 0.757 | 0.713
NCI-H1993 | 0.673 | 0.619 | 0.561 | 0.635 | 0.537 | 0.448 | 0.531 | 0.519 | 0.514 | 0.498 | 0.497 | 0.526 | 0.473 | 0.572 | 0.51 | 0.9 | 1.03 | 1.03 | 1 | 0.963
NCI-H1755 | 0.429 | 0.437 | 0.423 | 0.363 | 0.424 | 0.596 | 0.61 | 0.611 | 0.617 | 0.598 | 0.613 | 0.586 | 0.575 | 0.527 | 0.526 | 0.863 | 0.884 | 0.897 | 0.843 | 0.852
SK-LU-1 | 0.408 | 0.424 | 0.323 | 0.376 | 0.261 | 0.569 | 0.489 | 0.538 | 0.477 | 0.705 | 0.551 | 0.529 | 0.637 | 0.433 | 0.422 | 0.343 | 0.451 | 0.481 | 0.469 | 0.522
NCI-H358 | 0.13 | 0.14 | 0.134 | 0.135 | 0.133 | 0.345 | 0.418 | 0.359 | 0.329 | 0.292 | 0.291 | 0.271 | 0.319 | 0.189 | 0.26 | 0.564 | 0.597 | 0.525 | 0.521 | 0.667
